Legend:
Type in all cases: biochemical
[1] = molecular target: T1, horseradish peroxidase (HRP) (Armoracia rusticana, UniProt P00433); assay: Horseradish peroxidase (HRP) catalyzed oxidation of DHTz to tetrazine; conditions: HRP 15 nM; for Rate of HRP Oxidation of 3a: first 10 seconds
T1 sequence (P00433 31-338): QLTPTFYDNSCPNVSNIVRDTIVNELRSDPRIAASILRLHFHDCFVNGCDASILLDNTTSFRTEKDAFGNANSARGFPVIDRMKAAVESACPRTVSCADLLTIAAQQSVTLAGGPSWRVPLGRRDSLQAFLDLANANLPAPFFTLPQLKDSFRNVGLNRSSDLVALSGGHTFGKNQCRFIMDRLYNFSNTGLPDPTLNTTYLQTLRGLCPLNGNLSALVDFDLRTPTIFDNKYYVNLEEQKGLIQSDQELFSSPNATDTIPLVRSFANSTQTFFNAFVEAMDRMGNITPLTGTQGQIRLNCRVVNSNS
Protocol: Upon addition of horseradish peroxidase (15 nM) the UV-vis spectrum was monitored every 10 seconds. With 50% conversion after 100 seconds, complete conversion of 3a to 4a is observed after 600 seconds, as evidenced by the decrease in the absorption at 292 nm and increase at 325 nm with an isosbestic point at 303 nm. Similar spectral changes are observed when 3a is electrochemically oxidized to 4a in aqueous solution, or when the oxidation of 3a to 4a is photocatalyzed by methylene blue. […] Methylene blue was considered a particularly attractive sensitizer due to its clinical relevance, low molecular weight, low toxicity, high solubility, and an absorption spectrum (λmax 665 nm) that extends to the near IR. Further, methylene blue has previously been explored for applications in photodynamic therapy based on oxidation of indole-3-acetic acid. Rose bengal (λmax 550 nm), used in a range of biomedical applications, was also identified as an excellent sensitizer. […] Methylene blue (4 μM) also catalyzed the conversion of 3a to 4a in the presence of ambient light, with 47% conversion noted after 2 h. […] The mechanism of photooxidation more likely involves electron transfer and is the subject of ongoing study.
As a complement to these photocatalyzed reactions, the inventors observed that HRP can efficiently catalyze the oxidation of 3a in the dark at low enzyme concentration (15 nM) (FIG. 4). While HRP typically requires H2O2 as the terminal oxidant, the addition of HRP to a peroxide-free solution of 3a (30 μM) in PBS led to the rapid formation of 4a (FIG. 4, panel B). […] Neither cytochrome c nor hemoglobin were effective catalysts of DHTz oxidation, with only slow conversion of 3a to 4a even with heme concentrations that were nearly 3 orders of magnitude higher than that used with HRP.
Solutions (1 mL) containing 3a (30 μm) in PBS buffer were prepared in a cuvette from stock solutions. Oxidation of 3a to 4a was monitored by recording absorbance at 325 nm every 10 seconds while either hydrogen peroxide (2 mM), HRP (15 nM) or both were added (FIG. 4, panel B). For the superoxide dismutase experiment, HRP (15 nM) was added followed by SOD (770 nM) 40 seconds later (FIG. 4, panel C). For the kinetics experiments, solutions (1 mL) containing 3a in PBS buffer with EDTA (2 mM) were prepared in the following concentrations of 3a: 9, 17, 34, 50, 83, 150 and 200 μM. The oxidation rate was determined by observing the conversion of 3a to 4a in the first 10 seconds after mixing in HRP (15 nM) and subtracting the background oxidation prior to the addition of HRP.

[2] = molecular target: T2, F41A APEX2 (Glycine max, UniProt Q43758, A134P/E112K/K14D/W41A); assay: Oxidation of DHT by F41A APEX2, UV-Vis initial rates and kinetic parameters; conditions: for Initial rate of oxidation of DHT by F41A APEX2 + SOD: SOD 1 μM, PBS, 100 μM EDTA, first 100 s
T2 sequence (Q43758 1-250 A134P/E112K/K14D/W41A): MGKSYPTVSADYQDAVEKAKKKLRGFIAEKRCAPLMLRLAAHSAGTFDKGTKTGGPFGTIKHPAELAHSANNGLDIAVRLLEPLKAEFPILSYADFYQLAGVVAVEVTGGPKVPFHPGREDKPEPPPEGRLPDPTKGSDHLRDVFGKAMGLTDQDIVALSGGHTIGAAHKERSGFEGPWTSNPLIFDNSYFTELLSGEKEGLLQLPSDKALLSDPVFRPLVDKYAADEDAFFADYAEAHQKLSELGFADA
Protocol: UV-Vis and fluorescence measurements were conducted in quartz cuvettes. All reactions were conducted in phosphate buffered saline (PBS) containing 100 μM EDTA with a pH=7.4. The PBS was prepared by adding 25 mM phosphate salts (Na2HPO4 and NaH2PO4), 100 mM NaCl, 100 μM EDTA to DI water. EDTA was added to quench free metals that can oxidize DHT. The buffer was pH adjusted to 7.4 using 1 mM HCl and 1 mM NaOH. UV experiments were stirred at 25° C. in a temperature-controlled cuvette holder of the spectrophotometer. Solutions of 15 or 16 were prepared from methanol stock solutions.
SOD (1 μM) was added to PBS containing 100 μM EDTA. 15 or 16 (60 μM) was added from methanol stock solutions. After 10s, APEX2 (SEQ ID NO:1) or F41A APEX2 (275 nM) was dosed in and oxidation was monitored at 325 nm for 15 and 285 nm for 16 at 60s intervals.
The initial rate of oxidation was calculated from the first 100 seconds after APEX2 (SEQ ID NO:1) or F41A APEX2 was added ([…]). In the assays where SOD was added, SOD (1 μM) was added to PBS containing 100 μM EDTA and 15 or 16 was dosed in. 10 seconds later, APEX2 (SEQ ID NO:1) or F41A APEX2 ([…]) was added and the rate of oxidation was calculated from the first 100 seconds after APEX2 (SEQ ID NO:1) or F41A APEX2 ([…]) addition. The initial rate of oxidation was adjusted to background oxidation of DHT in PBS with 100 μM EDTA. Kinetic parameters (Table 2) were determined using GraphPad's Prism 6 software from the data presented below (Table 3-4).

[3] = tested on: A19V D222G APEX2; assay: Oxidation of 15 by APEX2 variant A19V D222G APEX2; conditions: 15 40 μM, enzyme 275 nM, PBS with EDTA
Protocol: 15 (40 μM) from methanol stock solutions was added to PBS containing […] EDTA. After 10s, APEX2 (275 nM) was dosed in and oxidation was monitored at 325 nm for 15. The procedure stated above was repeated for F41A APEX2 and A19V D222G APEX2. (FIG. 17).

O=C(O)CCC(=O)Nc1ccc(C2=NNC(c3ccccn3)=NN2)nc1 [3a, 4-oxo-4-((6-(6-(pyridin-2-yl)-1,4-dihydro-1,2,4,5-tetrazin-3-yl)pyridin-3-yl)amino)butanoic Acid]
time to complete conversion of 3a to 4a [1]: 600 s | conversion of 3a to 4a ([1]; after 100 seconds): 50% | Rate of HRP Oxidation of 3a ([1]; [3a] 17 μM): 5.6e-08 M/s | Rate of HRP Oxidation of 3a ([1]; [3a] 34 μM): 8.9e-08 M/s | Rate of HRP Oxidation of 3a ([1]; [3a] 50 μM): 1.2e-07 M/s | Rate of HRP Oxidation of 3a ([1]; [3a] 83 μM): 2.1e-07 M/s | Rate of HRP Oxidation of 3a ([1]; [3a] 150 μM): 2.5e-07 M/s | Rate of HRP Oxidation of 3a ([1]; [3a] 200 μM): 2.6e-07 M/s

O=C(O)CCCC(=O)Nc1ccc(C2=NNC(c3ccccn3)=NN2)nc1 [compound 15]
Initial rate of oxidation of DHT by F41A APEX2 + SOD ([2]; DHT 5 μM): 1.080 +/− 0.113 ×10^−8 M/s | Initial rate of oxidation of DHT by F41A APEX2 + SOD ([2]; DHT 10 μM): 2.625 +/− 0.177 ×10^−8 M/s | Initial rate of oxidation of DHT by F41A APEX2 + SOD ([2]; DHT 15 μM): 2.549 +/− 0.145 ×10^−8 M/s | Initial rate of oxidation of DHT by F41A APEX2 + SOD ([2]; DHT 20 μM): 3.629 +/− 0.413 ×10^−8 M/s | Initial rate of oxidation of DHT by F41A APEX2 + SOD ([2]; DHT 25 μM): 3.863 +/− 0.163 ×10^−8 M/s | Initial rate of oxidation of DHT by F41A APEX2 + SOD ([2]; DHT 30 μM): 5.019 +/− 0.089 ×10^−8 M/s | Initial rate of oxidation of DHT by F41A APEX2 + SOD ([2]; DHT 40 μM): 5.758 +/− 0.855 ×10^−8 M/s | Initial rate of oxidation of DHT by F41A APEX2 + SOD ([2]; DHT 50 μM): 5.978 +/− 0.304 ×10^−8 M/s | Initial rate of oxidation of DHT by F41A APEX2 + SOD ([2]; DHT 60 μM): 7.688 +/− 0.698 ×10^−8 M/s | Initial rate of oxidation of DHT by F41A APEX2 + SOD ([2]; DHT 70 μM): 7.685 +/− 0.869 ×10^−8 M/s | Initial rate of oxidation of DHT by F41A APEX2 + SOD ([2]; DHT 75 μM): 10.059 +/− 0.594 ×10^−8 M/s | Initial rate of oxidation of DHT by F41A APEX2 + SOD ([2]; DHT 85 μM): 12.425 +/− 0.046 ×10^−8 M/s | factor of increase of rate of catalysis versus APEX2 (SEQ ID NO:1) ([2]; F41A APEX2 mutant with SOD): 7 | oxidation by A19V D222G APEX2 (tetrazine formation at 325 nm) [3]: can oxidize 15
